Measured values taken from article PMC6489322, “Biochemical characterization of recombinant Avihepatovirus 3C protease and its localization” (Virology Journal, 2019).

Target: T1, DHAV 3C protease (avihepatovirus A1, UniProt Q076B4)
T1 construct: mature 3C cut from the genome polyprotein (aa 1614-1794, 181 aa); N-terminal His6 tag, pET32a (NdeI/HindIII), E. coli BL21, Ni-NTA; tag removal not described
Test: FRET peptide cleavage assay, inhibition
Type: biochemical
Conditions: 5 uM protease, 20 uM Dabcyl-ASFMNQSKVRRFE-Edans; inhibitor at 50 and 100 uM; cleavage buffer (assay optimum pH 7.0, 150 mM NaCl, 37 °C)

## CCOC(=O)/C=C/[C@H](C[C@@H]1CCNC1=O)NC(=O)[C@@H](CC(=O)[C@@H](NC(=O)c1cc(C)on1)C(C)C)Cc1ccc(F)cc1 [AG7088, Rupintrivir]
  FRET peptide cleavage assay, inhibition: The results showed that AG7088 exhibited inhibitory activity against the DHAV 3C protease
